Source: US11613538B2, “Method of inhibiting or reducing a viral infection” (PTC Therapeutics, Inc., priority 2009, dated 2023)

What was measured:
[1] = tested on: hypoxia-induced VEGF production in HeLa cells; experiment: cells; type: cell-based, human
[2] = tested on: Vaccinia; experiment: microbe, parasite or virus in culture; type: cell-based; conditions: Orthopoxvirus vaccinia, Vero C1008
[3] = tested on: Parainfluenza; experiment: Parainfluenza CPE protection assay in Vero cells; type: cell-based, parainfluenza virus
[4] = tested on: 786-O cells; experiment: 786-O renal cell carcinoma xenograft (VHL-negative), tumor volume; type: in vivo, mice; conditions: for Tumor size (mean±SD): PO
Protocol: Both sunitinib and rapamycin are used clinically for treatment of renal cancer.
A total of 100 mice were injected, of which 60 were used in the study.
Groups were taken off study when the mean tumor volume in a group was 1300 mm^3 or more. Vehicle-treatment started on Day 0 and continued through Day 57. Compound #10-treatment started on Day 0 and continued through Day 88.
Tumors were measured twice per week using digital calipers.
The time to progression to reach a tumor volume 1000 mm^3 was calculated for each mouse. The median values were reported.

COc1ccc([C@H]2c3[nH]c4ccc(Cl)cc4c3CCN2C(=O)Oc2ccc(Cl)cc2)cc1 (racemic) [Compound #10]
Inhibition of stress-induced VEGF production (FIG. 1) [1]: inhibit stress-induced VEGF production
IC50 [2]: 40 nM
IC90 [2]: 80 nM
IC50 ([3]; Parainfluenza, (−) RNA, Vero, CPE protection): 29 nM
IC90 ([3]; Parainfluenza, Vero, CPE protection): 44 nM
Activity against parainfluenza virus ([3]; in words): potent activity
Median time for tumors to reach 1000 mm^3 ([4]; Compound #10 10 mg/kg QD PO, sunitinib 75 mg/kg QD PO, rapamycin 15 mg/kg PO, time on study used if not reached): 71 days
Tumor size (mean±SD) ([4]; Day 57, 10 mg/kg QD): 945±408 mm^3
Tumors smaller than those in vehicle-treated mice ([4]; Day 57, Compound #10 10 mg/kg QD PO, sunitinib 75 mg/kg QD PO, rapamycin 15 mg/kg PO): 34%
Tumor size (mean±SD) ([4]; Day 88, 10 mg/kg QD): 1569±671 mm^3
Cure (tumor size <60 mm^3, not measurable) ([4]; Mouse 2-10, 10 mg/kg, in words): cured
